Values joined by “and” are separate entries in the source; they are usually repeats but may differ in a detail not shown here. Equal values may be shown once. Inconclusive results and toxic doses are left out.
Test system: L1210 leukemia ip in BDF1 mice, survival T/C
Assay: NCI In Vivo Anticancer Drug Screen. Data for tumor model L1210 Leukemia (intraperitoneal) in B6D2F1 (BDF1) mice
Conditions: endpoint: mean survival time, higher = longer survival
Outline: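 Survival endpoint. Drug-treated group vs vehicle group, expressed as T divided by C. Tumor passaged by transplantation.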

[1] = dose: 100.0 mg/kg/injection, schedule: Q01DX009 (ip), vehicle: Klucel (hydroxypropylcellulose) (HPC)
[2] = dose: 200.0 mg/kg/injection, schedule: Q01DX009 (ip), vehicle: Klucel (hydroxypropylcellulose) (HPC)
[3] = dose: 400.0 mg/kg/injection, schedule: Q01DX009 (ip), vehicle: Klucel (hydroxypropylcellulose) (HPC)
[4] = dose: 100.0 mg/kg/injection, schedule: Q01DX001 (ip), vehicle: carboxymethylcellulose (CMC)
[5] = dose: 200.0 mg/kg/injection, schedule: Q01DX001 (ip), vehicle: carboxymethylcellulose (CMC)
[6] = dose: 400.0 mg/kg/injection, schedule: Q01DX001 (ip), vehicle: carboxymethylcellulose (CMC)
[7] = dose: 100.0 mg/kg/injection, schedule: Q04DX003 (ip), vehicle: Klucel (hydroxypropylcellulose) (HPC)
[8] = dose: 200.0 mg/kg/injection, schedule: Q04DX003 (ip), vehicle: Klucel (hydroxypropylcellulose) (HPC)
[9] = dose: 400.0 mg/kg/injection, schedule: Q04DX003 (ip), vehicle: Klucel (hydroxypropylcellulose) (HPC)
[10] = dose: 100.0 mg/kg/injection, schedule: Q01DX009 (ip), vehicle: saline with Tween-80
[11] = dose: 200.0 mg/kg/injection, schedule: Q01DX009 (ip), vehicle: saline with Tween-80
[12] = dose: 50.0 mg/kg/injection, schedule: Q01DX001 (ip), vehicle: saline
[13] = dose: 50.0 mg/kg/injection, schedule: Q04DX003 (ip), vehicle: saline
[14] = dose: 100.0 mg/kg/injection, schedule: Q01DX001 (ip), vehicle: saline
[15] = dose: 200.0 mg/kg/injection, schedule: Q01DX001 (ip), vehicle: saline
[16] = dose: 12.5 mg/kg/injection, schedule: Q01DX009 (ip), vehicle: saline with Tween-80
[17] = dose: 25.0 mg/kg/injection, schedule: Q01DX009 (ip), vehicle: saline with Tween-80
[18] = dose: 50.0 mg/kg/injection, schedule: Q01DX009 (ip), vehicle: saline with Tween-80

With `Cc1c2ccccc2cc2cccc[n+]12` the T/C (dose: 4.0 mg/kg/injection, schedule: Q01DX015 (ip), vehicle: saline) was 97 % of control, the T/C (dose: 5.0 mg/kg/injection, schedule: Q01DX001 (ip), vehicle: saline) was 98 % of control and the T/C (dose: 8.0 mg/kg/injection, schedule: Q01DX015 (ip), vehicle: saline) was 97 % of control. The T/C (dose: 10.0 mg/kg/injection, schedule: Q01DX001 (ip), vehicle: saline) was 92 % of control, the T/C (dose: 16.0 mg/kg/injection, schedule: Q01DX015 (ip), vehicle: saline) was 110 % of control and the T/C (dose: 20.0 mg/kg/injection, schedule: Q01DX001 (ip), vehicle: saline) was 107 % of control. The T/C (dose: 20.0 mg/kg/injection, schedule: Q04DX003 (ip), vehicle: saline) was 111 % of control, the T/C (dose: 26.0 mg/kg/injection, schedule: Q04DX003 (ip), vehicle: saline) was 111 % of control and 118 % of control and the T/C (dose: 32.0 mg/kg/injection, schedule: Q01DX015 (ip), vehicle: saline) was 95 % of control. The T/C (dose: 40.0 mg/kg/injection, schedule: Q01DX001 (ip), vehicle: saline) was 112 % of control, the T/C (dose: 40.0 mg/kg/injection, schedule: Q04DX003 (ip), vehicle: saline) was 116 % of control and 117 % of control and the T/C (dose: 60.0 mg/kg/injection, schedule: Q04DX003 (ip), vehicle: saline) was 122 % of control.

With `Oc1ccccc1CNCc1ccccc1O` the T/C (dose: 75.0 mg/kg/injection, schedule: Q01DX001 (ip), vehicle: saline) was 96 % of control and the T/C (dose: 150.0 mg/kg/injection, schedule: Q01DX001 (ip), vehicle: saline) was 96 % of control.

In the case of `CCCCCCCCCCCCCCCCCC(=O)N/N=C\c1c(O)ccc2ccccc12`, the T/C [1] is reported as 93 % of control and 90 % of control, the T/C [2] is reported as 88 % of control and the T/C [3] is reported as 89 % of control.

For `CC(C)CC(N)C(=O)O` (stereo not drawn), the T/C [4] was 87 % of control, the T/C [5] was 91 % of control and the T/C [6] was 91 % of control.

In the case of `c1ccc2c(CCc3ccncc3)cccc2c1`, the T/C [1] is reported as 103 % of control, the T/C [7] is reported as 101 % of control and the T/C [2] is reported as 100 % of control. For the same compound, the T/C [8] was 103 % of control, the T/C [3] was 97 % of control and the T/C [9] was 100 % of control.

For `Nc1ccc2ccc(O)cc2c1`, the T/C (dose: 200.0 mg/kg/injection, schedule: Q04DX003 (ip), vehicle: saline) was 121 % of control.

For `CCOC(=O)c1cnc2ccc(OC)cc2c1Cl`, the T/C [10] was 95 % of control, the T/C (dose: 100.0 mg/kg/injection, schedule: Q04DX003 (ip), vehicle: saline with Tween-80) was 107 % of control and the T/C [11] was 101 % of control. The T/C (dose: 200.0 mg/kg/injection, schedule: Q04DX003 (ip), vehicle: saline with Tween-80) was 104 % of control, the T/C (dose: 400.0 mg/kg/injection, schedule: Q01DX009 (ip), vehicle: saline with Tween-80) was 97 % of control and the T/C (dose: 400.0 mg/kg/injection, schedule: Q04DX003 (ip), vehicle: saline with Tween-80) was 96 % of control.

For `Cc1nc(N)c2c(n1)C(C)N(C(=O)c1ccccc1)C2` (stereo not drawn), the T/C [4] was 103 % of control, the T/C [5] was 100 % of control and the T/C [6] was 97 % of control.

With `N#CCCNc1cccc(Cl)c1` the T/C [7] was 94 % of control, the T/C [8] was 109 % of control and the T/C [9] was 96 % of control.

In the case of `CCCCCCCCCCCC[n+]1ccc(C(N)=O)cc1`, the T/C (dose: 12.5 mg/kg/injection, schedule: Q01DX001 (ip), vehicle: saline) is reported as 91 % of control, the T/C (dose: 12.5 mg/kg/injection, schedule: Q04DX003 (ip), vehicle: saline) is reported as 96 % of control and the T/C (dose: 25.0 mg/kg/injection, schedule: Q01DX001 (ip), vehicle: saline) is reported as 100 % of control. For the same compound, the T/C (dose: 25.0 mg/kg/injection, schedule: Q04DX003 (ip), vehicle: saline) was 87 % of control, the T/C [12] was 86 % of control and the T/C [13] was 94 % of control.

For `Cn1c(=O)c2[nH]c(C3CC3)nc2n(C)c1=O`, the T/C [12] was 113 % of control, the T/C [14] was 101 % of control and the T/C [15] was 98 % of control.

For `CSc1nn[nH]n1`, the T/C (dose: 25.0 mg/kg/injection, schedule: Q01DX009 (ip), vehicle: acetone) was 93 % of control, the T/C (dose: 50.0 mg/kg/injection, schedule: Q01DX009 (ip), vehicle: acetone) was 96 % of control and the T/C [13] was 92 % of control. For the same compound, the T/C (dose: 100.0 mg/kg/injection, schedule: Q01DX001 (ip), vehicle: acetone) was 98 % of control, the T/C (dose: 100.0 mg/kg/injection, schedule: Q01DX009 (ip), vehicle: acetone) was 91 % of control and the T/C (dose: 100.0 mg/kg/injection, schedule: Q04DX003 (ip), vehicle: saline) was 97 % of control. The T/C (dose: 200.0 mg/kg/injection, schedule: Q01DX001 (ip), vehicle: acetone) was 93 % of control.

With `c1ccc(N2CCOCC2)cc1` the T/C [16] was 93 % of control, the T/C [17] was 100 % of control and the T/C [18] was 89 % of control. For the same compound, the T/C [1] was 95 % of control, the T/C [10] was 92 % of control and the T/C [2] was 93 % of control. For the same compound, the T/C [11] was 92 % of control and the T/C [3] was 101 % of control.

For `CN1CCC(S)(S)CC1`, the T/C [16] was 105 % of control, the T/C (dose: 12.5 mg/kg/injection, schedule: Q04DX003 (ip), vehicle: saline with Tween-80) was 96 % of control and the T/C [17] was 93 % of control. The T/C (dose: 25.0 mg/kg/injection, schedule: Q04DX003 (ip), vehicle: saline with Tween-80) was 102 % of control, the T/C [18] was 104 % of control and the T/C (dose: 50.0 mg/kg/injection, schedule: Q04DX003 (ip), vehicle: saline with Tween-80) was 106 % of control.

In the case of `COc1ccc(COc2ccc([N+](=O)[O-])cc2)cc1`, the T/C (dose: 50.0 mg/kg/injection, schedule: Q04DX002 (ip), vehicle: saline with Tween-80) is reported as 101 % of control, the T/C (dose: 100.0 mg/kg/injection, schedule: Q04DX002 (ip), vehicle: saline with Tween-80) is reported as 104 % of control and the T/C (dose: 200.0 mg/kg/injection, schedule: Q04DX002 (ip), vehicle: saline with Tween-80) is reported as 97 % of control.

For `CCCCCCCCOC(=O)c1[nH]cnc1N`, the T/C [12] was 100 % of control, the T/C [14] was 96 % of control and the T/C [15] was 96 % of control.

For `Cc1cc2c(c(NC(=O)NCCCl)c1C)CCCC2`, the T/C [1] was 92 % of control, the T/C [7] was 105 % of control and the T/C [2] was 100 % of control. For the same compound, the T/C [8] was 96 % of control, the T/C [3] was 91 % of control and the T/C [9] was 103 % of control.

In the case of `CC(=O)Nc1ccc2c(Nc3ccc(NS(C)(=O)=O)cc3)c3ccccc3nc2c1`, the T/C (dose: 0.8 mg/kg/injection, schedule: Q01DX009 (ip), vehicle: Klucel (hydroxypropylcellulose) (HPC)) is reported as 151 % of control, the T/C (dose: 1.5 mg/kg/injection, schedule: Q01DX009 (sc), vehicle: saline) is reported as 156 % of control and the T/C (dose: 1.6 mg/kg/injection, schedule: Q01DX009 (ip), vehicle: Klucel (hydroxypropylcellulose) (HPC)) is reported as 159 % of control. For the same compound, the T/C (dose: 3.1 mg/kg/injection, schedule: Q01DX009 (ip), vehicle: Klucel (hydroxypropylcellulose) (HPC)) was 180 % of control, the T/C (dose: 5.4 mg/kg/injection, schedule: Q01DX009 (ip), vehicle: saline with Tween-80) was 228 % of control and the T/C (dose: 6.25 mg/kg/injection, schedule: Q01DX009 (ip), vehicle: Klucel (hydroxypropylcellulose) (HPC)) was 281 % of control. The T/C (dose: 8.0 mg/kg/injection, schedule: Q01DX009 (ip), vehicle: saline with Tween-80) was 176 % of control, the T/C (dose: 12.0 mg/kg/injection, schedule: Q01DX009 (ip), vehicle: saline with Tween-80) was 171 % of control and the T/C [16] was 165 % of control. For the same compound, the T/C (dose: 12.5 mg/kg/injection, schedule: Q01DX009 (sc), vehicle: saline) was 152 % of control, the T/C (dose: 18.0 mg/kg/injection, schedule: Q01DX009 (ip), vehicle: saline with Tween-80) was 93 % of control and the T/C (dose: 25.0 mg/kg/injection, schedule: Q01DX009 (ip), vehicle: Klucel (hydroxypropylcellulose) (HPC)) was 93 % of control.

Reference: PubChem BioAssay AID248 (DTP/NCI, 2004)
